The results in this text go back to the NIST ThermoML archive (doi:10.1016/j.tca.2019.178318).

As a reminder, the vapor or sublimation pressure is the equilibrium pressure above the liquid or solid.

Numbers after ± are expanded uncertainties.

For this data set the following is noted: Liquid, Ebulliometric method (Recirculating still).

Consider `CC1=CCC2CC1C2(C)C` (stereo unspecified) [2-pinene], for which the “vapor or sublimation pressure” value runs as follows: (428.64 K) 101.33 ± 4.1 kPa; (428.65 K) 101.33 ± 4.1 kPa.

Turning to `Cc1ccc(C(C)C)cc1` [1-(1-methylethyl)-4-methylbenzene], for the setting “449.7 K”, the “vapor or sublimation pressure” value stood at 101.33 ± 4.1 kPa.

Turning to `C=C1CC/C=C(\C)CC[C@@H]2[C@@H]1CC2(C)C`, the “vapor or sublimation pressure” value (526.4 K) turned out to be 101.33 ± 4.1 kPa, the “vapor or sublimation pressure” value (526.47 K) came to 101.33 ± 4.1 kPa and the “vapor or sublimation pressure” value (526.53 K) worked out at 101.33 ± 4.1 kPa.

As to `C=C1C2CCC(C2)C1(C)C` (stereo unspecified) [2,2-dimethyl-3-methylenebicyclo[2.2.1]heptane], the “vapor or sublimation pressure” value by setting is: (432.73 K) 101.33 ± 4.1 kPa; (432.74 K) 101.33 ± 4.1 kPa; (432.76 K) 101.33 ± 4.1 kPa; (432.8 K) 101.33 ± 4.1 kPa.

`CC1=CC[C@@H]2[C@H](C1)C2(C)C` [(+)-3-carene]: the “vapor or sublimation pressure” value (442.63 K) is 101.33 ± 4.1 kPa.
